Results as given in US20260297109A1, “COMPOUNDS AS SUMO ACTIVATING ENZYME INHIBITORS” (WIGEN BIOMEDICINE TECHNOLOGY (SHANGHAI) CO., LTD., priority 2022, published 2026).

Target: T1, SAE (Homo sapiens, UniProt Q9UBT2)
T1 construct: endogenous in cells; host or cells: HCT116
T1 sequence (Q9UBT2 1-640): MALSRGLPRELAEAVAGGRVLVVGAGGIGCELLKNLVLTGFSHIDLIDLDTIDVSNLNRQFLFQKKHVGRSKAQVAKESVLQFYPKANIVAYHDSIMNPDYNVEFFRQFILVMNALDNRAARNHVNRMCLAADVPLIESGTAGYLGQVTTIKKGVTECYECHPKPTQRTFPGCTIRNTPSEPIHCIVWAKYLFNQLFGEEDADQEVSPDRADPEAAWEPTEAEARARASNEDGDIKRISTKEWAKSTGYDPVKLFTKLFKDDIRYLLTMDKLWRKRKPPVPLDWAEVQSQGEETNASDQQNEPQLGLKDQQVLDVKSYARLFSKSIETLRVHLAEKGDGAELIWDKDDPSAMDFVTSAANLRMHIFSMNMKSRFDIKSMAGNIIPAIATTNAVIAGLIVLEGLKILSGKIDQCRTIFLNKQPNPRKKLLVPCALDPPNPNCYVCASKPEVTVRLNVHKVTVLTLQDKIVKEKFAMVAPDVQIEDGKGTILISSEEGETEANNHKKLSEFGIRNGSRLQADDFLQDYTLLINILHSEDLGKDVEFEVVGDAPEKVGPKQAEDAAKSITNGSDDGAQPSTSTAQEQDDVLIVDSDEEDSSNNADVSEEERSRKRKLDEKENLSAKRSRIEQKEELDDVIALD
T1 sequence (Q9UBE0 1-346): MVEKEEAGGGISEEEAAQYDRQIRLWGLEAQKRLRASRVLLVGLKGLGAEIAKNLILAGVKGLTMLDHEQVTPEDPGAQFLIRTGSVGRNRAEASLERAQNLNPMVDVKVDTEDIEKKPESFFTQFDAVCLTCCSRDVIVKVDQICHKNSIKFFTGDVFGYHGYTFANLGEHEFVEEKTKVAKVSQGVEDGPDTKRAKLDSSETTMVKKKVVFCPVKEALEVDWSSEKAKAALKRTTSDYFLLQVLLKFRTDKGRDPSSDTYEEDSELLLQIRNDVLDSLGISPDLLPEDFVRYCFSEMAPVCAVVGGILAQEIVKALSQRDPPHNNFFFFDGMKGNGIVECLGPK
Assay: SUMO IF: in vitro inhibitory activity assay against SAE in HCT116 cells (SUMO-2/3 immunofluorescence)
Type: cell-based
Settings: class symbols, 6 h at 37° C.
Summary of the method: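 HCT116 cells were treated with compound for 6 h at 37 °C, then PFA-fixed, Triton-permeabilised and BSA-blocked. They were stained overnight at 4 °C with anti-SUMO-2/3 (18H8) rabbit mAb (1:400), then with FITC anti-rabbit IgG (1:300). Fluorescence versus DMSO gave inhibition rate and IC50.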

SMILES	IC50 [nM]
NS(=O)(=O)OC[C@H]1[C@H](F)[C@@H](Nc2ncncc2C(=O)c2cc3c(s2)CSC[C@@]32NCCc3ccccc32)C[C@@H]1O [Compound 295]	> 200
NS(=O)(=O)OC[C@H]1[C@H](F)[C@@H](Nc2ncncc2C(=O)c2cc3c(s2)CSC[C@]32NCCc3ccccc32)C[C@@H]1O [Compound 296]	50 to 200
NS(=O)(=O)OC[C@H]1[C@H](F)[C@@H](Nc2ncncc2C(=O)c2cc3c(s2)CSCC32NCCc3ccc(F)cc32)C[C@@H]1O (stereo partly drawn) [Compound 297]	≤ 50
NS(=O)(=O)OC[C@H]1[C@H](F)[C@@H](Nc2ncncc2C(=O)c2cc3c(s2)CSC[C@@]32NCCc3ccc(F)cc32)C[C@@H]1O [Compound 298]	> 200
NS(=O)(=O)OC[C@H]1[C@H](F)[C@@H](Nc2ncncc2C(=O)c2cc3c(s2)CSC[C@]32NCCc3ccc(F)cc32)C[C@@H]1O [Compound 299]	≤ 50
NS(=O)(=O)OC[C@H]1[C@H](F)[C@@H](Nc2ncncc2C(=O)c2cc3c(s2)CSCC32NCCc3ccc(Cl)cc32)C[C@@H]1O (stereo partly drawn) [Compound 300]	≤ 50
NS(=O)(=O)OC[C@H]1[C@H](F)[C@@H](Nc2ncncc2C(=O)c2cc3c(s2)C(F)=CC32NCCc3ccc(Cl)cc32)C[C@@H]1O (stereo partly drawn) [Compound 321]	≤ 50
NS(=O)(=O)OC[C@H]1[C@H](F)[C@@H](Nc2ncncc2C(=O)c2cc3c(s2)C(F)=C[C@@]32NCCc3ccc(Cl)cc32)C[C@@H]1O [Compound 322]	> 200
NS(=O)(=O)OC[C@H]1[C@H](F)[C@@H](Nc2ncncc2C(=O)c2cc3c(s2)C(F)=C[C@]32NCCc3ccc(Cl)cc32)C[C@@H]1O [Compound 323]	≤ 50
CC1=CC2(NCCc3ccc(Cl)cc32)c2cc(C(=O)c3cncnc3N[C@H]3C[C@H](O)[C@@H](COS(N)(=O)=O)[C@@H]3F)sc21 (stereo partly drawn) [Compound 324]	50 to 200
CC1=C[C@@]2(NCCc3ccc(Cl)cc32)c2cc(C(=O)c3cncnc3N[C@H]3C[C@H](O)[C@@H](COS(N)(=O)=O)[C@@H]3F)sc21 [Compound 325]	> 200
CC1=C[C@]2(NCCc3ccc(Cl)cc32)c2cc(C(=O)c3cncnc3N[C@H]3C[C@H](O)[C@@H](COS(N)(=O)=O)[C@@H]3F)sc21 [Compound 326]	≤ 50
NS(=O)(=O)OC[C@H]1[C@H](F)[C@@H](Nc2ncncc2C(=O)c2cc3c(s2)C(F)(F)CC32NCCc3ccc(Cl)cc32)C[C@@H]1O (stereo partly drawn) [Compound 327]	50 to 200
NS(=O)(=O)OC[C@H]1[C@H](F)[C@@H](Nc2ncncc2C(=O)c2cc3c(s2)C(F)(F)C[C@@]32NCCc3ccc(Cl)cc32)C[C@@H]1O [Compound 328]	> 200
NS(=O)(=O)OC[C@H]1[C@H](F)[C@@H](Nc2ncncc2C(=O)c2cc3c(s2)C(F)(F)C[C@]32NCCc3ccc(Cl)cc32)C[C@@H]1O [Compound 329]	50 to 200
NS(=O)(=O)OC[C@H]1[C@H](F)[C@@H](Nc2ncncc2C(=O)c2cc3c(s2)C=C[C@@]32NCCc3ccc(F)cc32)C[C@@H]1O [Compound 345]	> 200
NS(=O)(=O)OC[C@H]1[C@H](F)[C@@H](Nc2ncncc2C(=O)c2cc3c(s2)C=C[C@]32NCCc3ccc(F)cc32)C[C@@H]1O [Compound 346]	≤ 50
NS(=O)(=O)OC[C@H]1[C@H](F)[C@@H](Nc2ncncc2C(=O)c2cc3c(s2)COCC32NCCc3ccc(Cl)c(Cl)c32)C[C@@H]1O (stereo partly drawn) [Compound 558]	50 to 200
NS(=O)(=O)OC[C@H]1[C@H](F)[C@@H](Nc2ncncc2C(=O)c2cc3c(s2)COC[C@@]32NCCc3ccc(Cl)c(Cl)c32)C[C@@H]1O [Compound 559]	> 200

SMILES	IC50 [nM]
NS(=O)(=O)OC[C@H]1[C@H](F)[C@@H](Nc2ncncc2C(=O)c2cc3c(s2)COC[C@]32NCCc3ccc(Cl)c(Cl)c32)C[C@@H]1O [Compound 560]	50 to 200
NS(=O)(=O)OC[C@H]1[C@H](F)[C@@H](Nc2ncncc2C(=O)c2cc3c(s2)COCC32NCCc3cc(Cl)c(Cl)cc32)C[C@@H]1O (stereo partly drawn) [Compound 561]	50 to 200
NS(=O)(=O)OC[C@H]1[C@H](F)[C@@H](Nc2ncncc2C(=O)c2cc3c(s2)COC[C@@]32NCCc3cc(Cl)c(Cl)cc32)C[C@@H]1O [Compound 562]	> 200
NS(=O)(=O)OC[C@H]1[C@H](F)[C@@H](Nc2ncncc2C(=O)c2cc3c(s2)COC[C@]32NCCc3cc(Cl)c(Cl)cc32)C[C@@H]1O [Compound 563]	50 to 200
NS(=O)(=O)OC[C@H]1[C@H](F)[C@@H](Nc2ncncc2C(=O)c2cc3c(s2)COCC32NCCc3c(Cl)cc(Cl)cc32)C[C@@H]1O (stereo partly drawn) [Compound 564]	50 to 200
NS(=O)(=O)OC[C@H]1[C@H](F)[C@@H](Nc2ncncc2C(=O)c2cc3c(s2)COC[C@@]32NCCc3c(Cl)cc(Cl)cc32)C[C@@H]1O [Compound 565]	> 200
NS(=O)(=O)OC[C@H]1[C@H](F)[C@@H](Nc2ncncc2C(=O)c2cc3c(s2)COC[C@]32NCCc3c(Cl)cc(Cl)cc32)C[C@@H]1O [Compound 566]	50 to 200
NS(=O)(=O)OC[C@H]1[C@H](F)[C@@H](Nc2ncncc2C(=O)c2cc3c(s2)COCC32NCCc3ccc(Cl)c(F)c32)C[C@@H]1O (stereo partly drawn) [Compound 567]	50 to 200
NS(=O)(=O)OC[C@H]1[C@H](F)[C@@H](Nc2ncncc2C(=O)c2cc3c(s2)COC[C@@]32NCCc3ccc(Cl)c(F)c32)C[C@@H]1O [Compound 568]	> 200
NS(=O)(=O)OC[C@H]1[C@H](F)[C@@H](Nc2ncncc2C(=O)c2cc3c(s2)COC[C@]32NCCc3ccc(Cl)c(F)c32)C[C@@H]1O [Compound 569]	50 to 200
NS(=O)(=O)OC[C@H]1[C@H](F)[C@@H](Nc2ncncc2C(=O)c2cc3c(s2)COCC32NCCc3cc(F)c(Cl)cc32)C[C@@H]1O (stereo partly drawn) [Compound 570]	50 to 200
NS(=O)(=O)OC[C@H]1[C@H](F)[C@@H](Nc2ncncc2C(=O)c2cc3c(s2)COC[C@@]32NCCc3cc(F)c(Cl)cc32)C[C@@H]1O [Compound 571]	> 200
NS(=O)(=O)OC[C@H]1[C@H](F)[C@@H](Nc2ncncc2C(=O)c2cc3c(s2)COC[C@]32NCCc3cc(F)c(Cl)cc32)C[C@@H]1O [Compound 572]	50 to 200
NS(=O)(=O)OC[C@H]1[C@H](F)[C@@H](Nc2ncncc2C(=O)c2cc3c(s2)COCC32NCCc3c(F)cc(Cl)cc32)C[C@@H]1O (stereo partly drawn) [Compound 573]	50 to 200
NS(=O)(=O)OC[C@H]1[C@H](F)[C@@H](Nc2ncncc2C(=O)c2cc3c(s2)COC[C@@]32NCCc3c(F)cc(Cl)cc32)C[C@@H]1O [Compound 574]	> 200
NS(=O)(=O)OC[C@H]1[C@H](F)[C@@H](Nc2ncncc2C(=O)c2cc3c(s2)COC[C@]32NCCc3c(F)cc(Cl)cc32)C[C@@H]1O [Compound 575]	50 to 200
CN1Cc2sc(C(=O)c3cncnc3N[C@H]3C[C@H](O)[C@@H](COS(N)(=O)=O)[C@@H]3F)cc2C2(C1)NCCc1ccc(Cl)cc12 (stereo partly drawn) [Compound 576]	≤ 50
NS(=O)(=O)OC[C@H]1[C@H](F)[C@@H](Nc2ncncc2C(=O)c2cc3c(s2)CN(C2CC2)CC32NCCc3ccc(Cl)cc32)C[C@@H]1O (stereo partly drawn) [Compound 579]	≤ 50
NS(=O)(=O)OC[C@H]1[C@H](F)[C@@H](Nc2ncncc2C(=O)c2cc3c(s2)CNCC32NCCc3ccc(Cl)cc32)C[C@@H]1O (stereo partly drawn) [Compound 582]	50 to 200

Same assay, conditions: numeric values, 6 h at 37° C.

SMILES	IC50 [nM]
NS(=O)(=O)OC[C@H]1[C@H](F)[C@@H](Nc2ncncc2C(=O)c2cc3c(s2)CSC[C@@]32NCCc3ccc(Cl)cc32)C[C@@H]1O [Compound 301]	> 1000
NS(=O)(=O)OC[C@H]1[C@H](F)[C@@H](Nc2ncncc2C(=O)c2cc3c(s2)CSC[C@]32NCCc3ccc(Cl)cc32)C[C@@H]1O [Compound 302]	21.5
NS(=O)(=O)OC[C@H]1[C@H](F)[C@@H](Nc2ncncc2C(=O)c2cc3c(s2)C=C[C@@]32NCCc3ccc(Cl)cc32)C[C@@H]1O [Compound 343]	> 1000
CN1Cc2sc(C(=O)c3cncnc3N[C@H]3C[C@H](O)[C@@H](COS(N)(=O)=O)[C@@H]3F)cc2[C@@]2(C1)NCCc1ccc(Cl)cc12 [Compound 577]	> 1000
CN1Cc2sc(C(=O)c3cncnc3N[C@H]3C[C@H](O)[C@@H](COS(N)(=O)=O)[C@@H]3F)cc2[C@]2(C1)NCCc1ccc(Cl)cc12 [Compound 578]	29.2
NS(=O)(=O)OC[C@H]1[C@H](F)[C@@H](Nc2ncncc2C(=O)c2cc3c(s2)CN(C2CC2)C[C@@]32NCCc3ccc(Cl)cc32)C[C@@H]1O [Compound 580]	> 1000
NS(=O)(=O)OC[C@H]1[C@H](F)[C@@H](Nc2ncncc2C(=O)c2cc3c(s2)CN(C2CC2)C[C@]32NCCc3ccc(Cl)cc32)C[C@@H]1O [Compound 581]	23.8
